From paper PMC5619818, “Exploring Lactobacillus reuteri DSM20016 as a biocatalyst for transformation of longer chain 1,2-diols: Limits with microcompartment” (PLoS ONE, 2017)

Assays:
[1] = target: T1, PduP (coenzyme-A acylating propionaldehyde dehydrogenase) (Limosilactobacillus reuteri, UniProt A5VMA0); assay: NADH formation at […] nm; assay type: biochemical; details: NAD+ 5 mM, HS-CoA 0.43 mM, 50 mM potassium phosphate pH 7.0, 1 mM DTT, 30 °C
T1 construct: gene Lreu_1735

[2] = target: T2, PduQ (1,3-propanediol oxidoreductase) (Limosilactobacillus reuteri, UniProt A5VM99); assay: NADH oxidation at […] nm; assay type: biochemical; details: NADH 0.2 mM, 50 mM potassium phosphate pH 7.0; aldehyde reduction
T2 construct: gene Lreu_1734
T2 sequence (A5VM99 1-373): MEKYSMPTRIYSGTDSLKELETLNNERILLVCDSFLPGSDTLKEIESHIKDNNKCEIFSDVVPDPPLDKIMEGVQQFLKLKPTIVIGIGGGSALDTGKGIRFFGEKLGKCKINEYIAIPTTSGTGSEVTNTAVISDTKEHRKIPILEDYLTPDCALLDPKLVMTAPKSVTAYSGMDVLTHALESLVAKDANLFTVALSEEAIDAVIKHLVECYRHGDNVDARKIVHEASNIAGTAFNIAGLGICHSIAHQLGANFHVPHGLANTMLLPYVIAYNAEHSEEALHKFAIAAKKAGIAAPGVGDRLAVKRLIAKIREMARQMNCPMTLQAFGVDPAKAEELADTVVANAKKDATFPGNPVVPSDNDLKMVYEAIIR

purified protein = substrate: O=CCCO; assay: purified protein; assay type: biochemical, Limosilactobacillus reuteri

CCCCCCCC=O [Octanaldehyde]
Km [1]: Pentanaldehyde (C5)< Hexanaldehyde (C6)< Octanaldehyde (C8) | Km [2]: Pentanaldehyde (C5)< Hexanaldehyde (C6)< Octanaldehyde (C8)

CCCCCCCCCC=O [Decylaldehyde]
Km [1]: Hexanaldehyde (C6)< Octanaldehyde (C8)< Decylaldehyde (C10) | Km [2]: Hexanaldehyde (C6)< Octanaldehyde (C8)< Decylaldehyde (C10)

B1: PduQ (1,3-propanediol oxidoreductase) (Limosilactobacillus reuteri subsp. reuteri) (protein)
chain: T2 sequence (A5VM99 1-373)
Km (purified protein; NADH 0.2 mM, 50 mM potassium phosphate pH 7.0, aldehyde reduction): 28.7 mM

B2: PduP (coenzyme-A acylating propionaldehyde dehydrogenase) (Limosilactobacillus reuteri subsp. reuteri) (protein)
chain: MQINDIESAVRKILAEELDNASSSSANVAATTDNGHRGIFTNVNDAIAAAKAAQEIYRDKPIAVRQQVIDAIKEGFRPYIEKMAKDIKEETGMGTVEAKIAKLNNALYNTPGPEILEPVVENGDGGMVMYERLPYGVIGAVGPSTNPSETVIANAIMMLAGGNTLYFGAHPGAKNVTRWTIEKMNDFIADATGLHNLVVSIETPTIESVQQMMKHPDIAMLAVTGGPAVVHQAMTSGKKAVGAGPGNPPAMVDATADIDLAAHNIITSASFDNDILCTAEKEVVAESSIKDELIRKMQDEGAFVVNREQADKLADMCIQENGAPDRKFVGKDATYILDQANIPYTGHPVEIICELPKEHPLVMTEMLMPILPVVSCPTFDDVLKTAVEVEKGNHHTATIHSNNLKHINNAAHRMQCSIFVVNGPSYVGTGVADNGAHSGASALTIATPTGEGTCTARTFTRRVRLNSPQGFSVRNWY
Km (purified protein; NAD+ 5 mM, HS-CoA 0.43 mM, 50 mM potassium phosphate pH 7.0, 1 mM DTT, 30 °C): 10.1 mM
